Columns and labels:
Test in all cases: cells
[1] = system: MV4-11; format: functional, cell-based, Homo sapiens, MV-4-11; conditions: Homo sapiens, MV4-11;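 further: cell viability readout measuring growth inhibition of human MV-4-11 cells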
Description: SANGER: Inhibition of human MV-4-11 cell growth in a cell viability assay.

[2] = system: SNU-C2B; format: functional, cell-based; conditions: Homo sapiens;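 further: cell viability readout used to measure compound-driven suppression of SNU-C2B cell proliferation, IC50 marking half-maximal growth inhibition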
Description: SANGER: Inhibition of human SNU-C2B cell growth in a cell viability assay.

[3] = system: NB13; format: functional, cell-based, Homo sapiens; conditions: Homo sapiens, NB13;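 further: cell viability readout measuring growth inhibition of human NB13 cells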
Description: SANGER: Inhibition of human NB13 cell growth in a cell viability assay.

[4] = system: EW-1; format: functional, cell-based, Homo sapiens; conditions: Homo sapiens, EW-1;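 further: growth inhibition of the human EW-1 cell line, read out by a cell viability assay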
Description: SANGER: Inhibition of human EW-1 cell growth in a cell viability assay.

[5] = system: HDLM-2; format: functional, cell-based, Homo sapiens; conditions: Homo sapiens, HDLM-2;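 further: cell viability assay measuring suppression of HDLM-2 proliferation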
Description: SANGER: Inhibition of human HDLM-2 cell growth in a cell viability assay.

[6] = system: SK-N-FI; format: functional, cell-based, Homo sapiens; conditions: Homo sapiens, SK-N-FI;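 further: cell viability assay measuring growth inhibition of human SK-N-FI cells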
Description: SANGER: Inhibition of human SK-N-FI cell growth in a cell viability assay.

[7] = system: TE-10; format: functional, cell-based, Homo sapiens; conditions: Homo sapiens, TE-10;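 further: growth inhibition of TE-10 cells, measured by a cell viability assay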
Description: SANGER: Inhibition of human TE-10 cell growth in a cell viability assay.

[8] = system: ES3; format: functional, cell-based, Homo sapiens; conditions: Homo sapiens, ES3;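 further: growth inhibition of ES3 cells, read out with a cell viability assay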
Description: SANGER: Inhibition of human ES3 cell growth in a cell viability assay.

[9] = system: SW 954; format: functional, cell-based, Homo sapiens; conditions: Homo sapiens, SW 954;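 further: growth inhibition of SW954 human cancer cells, read out as cell viability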
Description: SANGER: Inhibition of human SW954 cell growth in a cell viability assay.

[10] = system: MZ2-MEL; format: functional, cell-based, Homo sapiens; conditions: Homo sapiens, MZ2-MEL;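 further: growth inhibition of MZ2-MEL cells read out with a cell viability assay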
Description: SANGER: Inhibition of human MZ2-MEL cell growth in a cell viability assay.

[11] = system: NCI-H720; format: functional, cell-based, Homo sapiens; conditions: Homo sapiens, NCI-H720;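 further: growth inhibition of human NCI-H720 cells determined by a cell viability assay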
Description: SANGER: Inhibition of human NCI-H720 cell growth in a cell viability assay.

[12] = system: CGTH-W-1; format: functional, cell-based, Homo sapiens; conditions: Homo sapiens, CGTH-W-1;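 further: growth inhibition of human CGTH-W-1 cells measured by cell viability assay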
Description: SANGER: Inhibition of human CGTH-W-1 cell growth in a cell viability assay.

[13] = system: KP-N-YS; format: functional, cell-based, Homo sapiens; conditions: Homo sapiens, KP-N-YS;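 further: cell viability assay measuring inhibition of cell line growth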
Description: SANGER: Inhibition of human KP-N-YS cell growth in a cell viability assay.

[14] = system: DOHH-2; format: functional, cell-based, Homo sapiens; conditions: Homo sapiens, DOHH-2;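 further: growth inhibition of human DOHH-2 cells, read out with a cell viability assay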
Description: SANGER: Inhibition of human DOHH-2 cell growth in a cell viability assay.

[15] = system: HCE-4; format: functional, cell-based; conditions: Homo sapiens;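 further: cell viability assay measuring inhibition of growth in the human HCE-4 cell line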
Description: SANGER: Inhibition of human HCE-4 cell growth in a cell viability assay.

[16] = system: BB30-HNC; format: functional, cell-based, Homo sapiens; conditions: Homo sapiens, BB30-HNC;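 further: growth inhibition of the cultured cell line, read out by a cell viability assay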
Description: SANGER: Inhibition of human BB30-HNC cell growth in a cell viability assay.

[17] = system: NCI-H82; format: functional, cell-based, Homo sapiens; conditions: Homo sapiens, NCI-H82;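 further: growth inhibition of NCI-H82 cells, measured with a cell viability readout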
Description: SANGER: Inhibition of human NCI-H82 cell growth in a cell viability assay.

[18] = system: BB65-RCC; format: functional, cell-based, Homo sapiens; conditions: Homo sapiens, BB65-RCC;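 further: growth inhibition of the cell line, measured with a cell viability assay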
Description: SANGER: Inhibition of human BB65-RCC cell growth in a cell viability assay.

[19] = system: SJSA-1; format: functional, cell-based, Homo sapiens; conditions: Homo sapiens, SJSA-1;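 further: growth inhibition of human SJSA-1 cells, read out through a cell viability measurement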
Description: SANGER: Inhibition of human SJSA-1 cell growth in a cell viability assay.

[20] = system: DU-4475; format: functional, cell-based, Homo sapiens; conditions: Homo sapiens, DU-4475
Description: SANGER: Inhibition of human DU-4475 cell growth in a cell viability assay.

[21] = system: C2BBe1; format: functional, cell-based, Homo sapiens; conditions: Homo sapiens, C2BBe1;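 further: growth inhibition of C2BBe1 cells, read out through a viability assay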
Description: SANGER: Inhibition of human C2BBe1 cell growth in a cell viability assay.

[22] = system: A498; format: functional, cell-based, Homo sapiens; conditions: Homo sapiens, A498;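 further: growth inhibition of human A498 cells, read out with a cell viability assay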
Description: SANGER: Inhibition of human A498 cell growth in a cell viability assay.

[23] = system: CW-2; format: functional, cell-based, Homo sapiens; conditions: Homo sapiens, CW-2;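 further: growth inhibition of CW-2 cells, read out by a cell viability assay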
Description: SANGER: Inhibition of human CW-2 cell growth in a cell viability assay.

[24] = system: L-428; format: functional, cell-based, Homo sapiens; conditions: Homo sapiens, L-428
Description: SANGER: Inhibition of human L-428 cell growth in a cell viability assay.

[25] = system: NB69; format: functional, cell-based, Homo sapiens; conditions: Homo sapiens, NB69;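 further: growth inhibition of NB69 cells, determined by a cell viability assay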
Description: SANGER: Inhibition of human NB69 cell growth in a cell viability assay.

[26] = system: SK-NEP-1; format: functional, cell-based, Homo sapiens; conditions: Homo sapiens, SK-NEP-1;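 further: growth inhibition of human SK-NEP-1 cells, read out by a cell viability assay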
Description: SANGER: Inhibition of human SK-NEP-1 cell growth in a cell viability assay.

[27] = system: MSTO-211H; format: functional, cell-based, Homo sapiens; conditions: Homo sapiens, MSTO-211H
Description: SANGER: Inhibition of human MSTO-211H cell growth in a cell viability assay.

[28] = system: MC116; format: functional, cell-based, Homo sapiens; conditions: Homo sapiens, MC116;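 further: growth inhibition of MC116 cells, read out with a cell viability assay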
Description: SANGER: Inhibition of human MC116 cell growth in a cell viability assay.

[29] = system: K5; format: functional, cell-based, Homo sapiens; conditions: Homo sapiens, K5
Description: SANGER: Inhibition of human K5 cell growth in a cell viability assay.

[30] = system: TGBC24TKB; format: functional, cell-based; conditions: Homo sapiens;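 further: growth inhibition of human TGBC24TKB cells, read out with a cell viability assay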
Description: SANGER: Inhibition of human TGBC24TKB cell growth in a cell viability assay.

[31] = system: NCI-H1155; format: functional, cell-based, Homo sapiens; conditions: Homo sapiens, NCI-H1155;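 further: cell growth inhibition measured by a viability assay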
Description: SANGER: Inhibition of human NCI-H1155 cell growth in a cell viability assay.

[32] = system: JAR; format: functional, cell-based, Homo sapiens; conditions: Homo sapiens, JAR;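 further: growth inhibition of human JAR cells determined with a cell viability assay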
Description: SANGER: Inhibition of human JAR cell growth in a cell viability assay.

[33] = system: HCC2218; format: functional, cell-based, Homo sapiens; conditions: Homo sapiens, HCC2218;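 further: cell viability assay read-out, with IC50 given as the concentration that inhibits growth of the cell line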
Description: SANGER: Inhibition of human HCC2218 cell growth in a cell viability assay.

[34] = system: SW982; format: functional, cell-based; conditions: Homo sapiens;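 further: growth inhibition of SW982 cells, read out with a cell viability assay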
Description: SANGER: Inhibition of human SW982 cell growth in a cell viability assay.

[35] = system: IST-MES1; format: functional, cell-based, Homo sapiens; conditions: Homo sapiens, IST-MES1;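 further: growth inhibition of IST-MES1 cells, measured with a cell viability assay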
Description: SANGER: Inhibition of human IST-MES1 cell growth in a cell viability assay.

[36] = system: DMS-114; format: functional, cell-based, Homo sapiens; conditions: Homo sapiens, DMS-114
[37] = system: NCI-N87; format: functional, cell-based; conditions: Homo sapiens;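 further: growth inhibition of human NCI-N87 cells, read out with a cell viability assay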
Description: SANGER: Inhibition of human NCI-N87 cell growth in a cell viability assay.

[38] = system: NCI-H209; format: functional, cell-based, Homo sapiens; conditions: Homo sapiens, NCI-H209;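 further: growth inhibition of human NCI-H209 cells, measured by a cell viability assay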
Description: SANGER: Inhibition of human NCI-H209 cell growth in a cell viability assay.

[39] = system: NB6; format: functional, cell-based, Homo sapiens; conditions: Homo sapiens, NB6;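 further: growth inhibition of NB6 cells, read out by a cell viability assay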
Description: SANGER: Inhibition of human NB6 cell growth in a cell viability assay.

[40] = system: EW-3; format: functional, cell-based, Homo sapiens; conditions: Homo sapiens, EW-3;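 further: cell viability assay read-out, IC50 reflects inhibition of growth of the EW-3 cells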
Description: SANGER: Inhibition of human EW-3 cell growth in a cell viability assay.

[41] = system: A388; format: functional, cell-based; conditions: Homo sapiens;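 further: growth inhibition of human A388 cells, read out with a cell viability assay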
Description: SANGER: Inhibition of human A388 cell growth in a cell viability assay.

[42] = system: SNU-5; format: functional, cell-based, Homo sapiens; conditions: Homo sapiens, SNU-5;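 further: cell viability readout used to measure growth inhibition in human NCI-SNU-5 cells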
Description: SANGER: Inhibition of human NCI-SNU-5 cell growth in a cell viability assay.

[43] = system: NCI-H1355; format: functional, cell-based, Homo sapiens; conditions: Homo sapiens, NCI-H1355;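 further: growth inhibition of human NCI-H1355 cells, read out by a cell viability assay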
Description: SANGER: Inhibition of human NCI-H1355 cell growth in a cell viability assay.

[44] = system: KNS-42; format: functional, cell-based; conditions: Homo sapiens;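 further: growth inhibition of KNS-42 cells, read out with a cell viability assay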
Description: SANGER: Inhibition of human KNS-42 cell growth in a cell viability assay.

[45] = system: EM-2; format: functional, cell-based, Homo sapiens; conditions: Homo sapiens, EM-2;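 further: growth inhibition of EM-2 cells, read out with a cell viability assay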
Description: SANGER: Inhibition of human EM-2 cell growth in a cell viability assay.

[46] = system: BE-13; format: functional, cell-based, Homo sapiens; conditions: Homo sapiens, BE-13;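 further: growth inhibition of human BE-13 cells, measured with a cell viability assay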
Description: SANGER: Inhibition of human BE-13 cell growth in a cell viability assay.

[47] = system: UACC-257; format: functional, cell-based, Homo sapiens; conditions: Homo sapiens, UACC-257
Description: SANGER: Inhibition of human UACC-257 cell growth in a cell viability assay.

[48] = system: NEC8; format: functional, cell-based, Homo sapiens; conditions: Homo sapiens, NEC8;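 further: growth inhibition of human NEC8 cells, read out by a cell viability assay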
Description: SANGER: Inhibition of human NEC8 cell growth in a cell viability assay.

[49] = system: GCIY; format: functional, cell-based, Homo sapiens; conditions: Homo sapiens, GCIY;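 further: growth inhibition of the human GCIY cell line, read out by a cell viability assay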
Description: SANGER: Inhibition of human GCIY cell growth in a cell viability assay.

[50] = system: U-87 MG; format: functional, cell-based, Homo sapiens, U-87MG ATCC; conditions: Homo sapiens, U-87 MG;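 further: growth inhibition of the cells measured with a viability assay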
Description: SANGER: Inhibition of human U-87-MG cell growth in a cell viability assay.

CC1=C(/C=C/C(C)=C/C=C/C(C)=C/C(=O)O)C(C)(C)CCC1 [TRETINOIN]
IC50 [1]: 0.021 µM | IC50 [2]: > 10 µM | IC50 [3]: 0.257 µM | IC50 [4]: > 10 µM | IC50 [5]: > 10 µM | IC50 [6]: > 10 µM | IC50 [7]: > 10 µM | IC50 [8]: > 10 µM | IC50 [9]: > 10 µM | IC50 [10]: > 10 µM | IC50 [11]: 1.03 µM | IC50 [12]: > 10 µM | IC50 [13]: > 10 µM | IC50 [14]: > 10 µM | IC50 [15]: > 10 µM | IC50 [16]: > 10 µM | IC50 [17]: > 10 µM | IC50 [18]: > 10 µM | IC50 [19]: > 10 µM | IC50 [20]: > 10 µM | IC50 [21]: > 10 µM | IC50 [22]: > 10 µM | IC50 [23]: > 10 µM | IC50 [24]: > 10 µM | IC50 [25]: > 10 µM | IC50 [26]: 0.662 µM | IC50 [27]: > 10 µM | IC50 [28]: > 10 µM | IC50 [29]: > 10 µM | IC50 [30]: > 10 µM | IC50 [31]: > 10 µM | IC50 [32]: > 10 µM | IC50 [33]: > 10 µM | IC50 [34]: > 10 µM | IC50 [35]: > 10 µM | IC50 [36]: > 10 µM | IC50 [37]: > 10 µM | IC50 [38]: 2.52 µM | IC50 [39]: > 10 µM | IC50 [40]: 0.48 µM | IC50 [41]: > 10 µM | IC50 [42]: > 10 µM | IC50 [43]: > 10 µM | IC50 [44]: > 10 µM | IC50 [45]: 5.33 µM | IC50 [46]: > 10 µM | IC50 [47]: > 10 µM | IC50 [48]: > 10 µM | IC50 [49]: > 10 µM | IC50 [50]: > 10 µM

From ChEMBL document CHEMBL1201861, “Genomics of Drug Sensitity in Cancer screening data, Wellcome Trust Sanger Institute”
